In US20230136600A1, “Method and device for screening antigen epitope polypeptide” (priority 2020, published 2023):

Tested on: Balb/c mice
Test: Polypeptide chip-based vaccine immunogenicity scoring system
Type: in vivo
Design: key to A2: whether the 95 percentile of the last sampling is increased compared with the end point: Y = rise; N = no rise
Conditions: Embodiment III, polypeptide-KLH; for A1: difference between a highest median and a D 0 median (95 percentile) / A2: whether the 95 percentile of the last sampling is increased compared with the end point: Mix1-10; for Total single peptide: A*3 + B*2 + C*1; for A: 95 percentile grouping number score / B: Mouse performance score: total score = 5; for C1: #A timing-sequence response peptide fragment set / C2: #B vaccine specificity peptide fragment set / C3: Intersection of A and B / C4: Percentage of the intersection in set B / C: Timing-sequence response and specificity score: value of the whole mix
Description: Data distribution and characteristics thereof are analyzed based on a) and b), a polypeptide chip-based vaccine immunogenicity scoring system (referring to Table 7) is designed.
10 combinations are evaluated by the polypeptide chip-based vaccine immunogenicity scoring system. An evaluation method is consistent with that in Embodiment II. Evaluation results are show in the table below.
This embodiment is consistent with Embodiment II. Each combination is evaluated by the polypeptide chip-based vaccine immunogenicity scoring system. Evaluation results are show in the table below.

Sequence	B1: D 0-D 14 95 percentile rise in the number of mice	B2: D 0-D 21 95 percentile rise in the number of mice	B3: D 14-D 21 95 percentile rise in the number of mice	B4: D 21-D 28 95 percentile rise in the number of mice	A1: difference between a highest median and a D 0 median (95 percentile)	A2: whether the 95 percentile of the last sampling is increased compared with the end point	Total single peptide	A: 95 percentile grouping number score	B: Mouse performance score	C1: #A timing-sequence response peptide fragment set	C2: #B vaccine specificity peptide fragment set	C3: Intersection of A and B	C4: Percentage of the intersection in set B	C: Timing-sequence response and specificity score
ECVLGQSKR (SARS-CoV-2) [SEQ ID NO:10]	3	3	1	0	0.11	N	17.9	4.5	1.7	1494	190	2	1.053	1
RGGSYTNDKAC (SARS-CoV-2) [SEQ ID NO:2]	3	3	2	0	0.14	N	18.3	4.5	1.9	288	268	4	1.493	1
NLDSKVGGNYNY [SEQ ID NO:15]	3	3	1	0	0.15	N	17.4	4.5	1.7	257	682	3	0.440	0.5
HGKEDLKF (SARS-CoV-2) [SEQ ID NO:23]	3	3	0	1	0.20	N	19.4	5	1.7	1494	190	2	1.053	1
PLQPELDSFKEE [SEQ ID NO:37]	3	2	1	1	0.09	Y	15.9	4	1.7	230	251	1	0.398	0.5
RLFRKSNLK (SARS-CoV-2) [SEQ ID NO:35]	3	3	2	0	0.10	N	16.3	4	1.9	352	541	1	0.185	0.5
DYNYKLPDD (SARS-CoV-2) [SEQ ID NO:11]	3	3	1	2	0.12	Y	20.2	5	2.1	288	268	4	1.493	1
NSVAYSNNS (SARS-CoV-2) [SEQ ID NO:9]	3	3	1	1	0.07	N	10.3	2	1.9	145	529	1	0.189	0.5
